Experiments:
[1] = molecular target: T1, Estrogen receptor (Homo sapiens, UniProt P03372)
T1 sequence (P03372 whole entry): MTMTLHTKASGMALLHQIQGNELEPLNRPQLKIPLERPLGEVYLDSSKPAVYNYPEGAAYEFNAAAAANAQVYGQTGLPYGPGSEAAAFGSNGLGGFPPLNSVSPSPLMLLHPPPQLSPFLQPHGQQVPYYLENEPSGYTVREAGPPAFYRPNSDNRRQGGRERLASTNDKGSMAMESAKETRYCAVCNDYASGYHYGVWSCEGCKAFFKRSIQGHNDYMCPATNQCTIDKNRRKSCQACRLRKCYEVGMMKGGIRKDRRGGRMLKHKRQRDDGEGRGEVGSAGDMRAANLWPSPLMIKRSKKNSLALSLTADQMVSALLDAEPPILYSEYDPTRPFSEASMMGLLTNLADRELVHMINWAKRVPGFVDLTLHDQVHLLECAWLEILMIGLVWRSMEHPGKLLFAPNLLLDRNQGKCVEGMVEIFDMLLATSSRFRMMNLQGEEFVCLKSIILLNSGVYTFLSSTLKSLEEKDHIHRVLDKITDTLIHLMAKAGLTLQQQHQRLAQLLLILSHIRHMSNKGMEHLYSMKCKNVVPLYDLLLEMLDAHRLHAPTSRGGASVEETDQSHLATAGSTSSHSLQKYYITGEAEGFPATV
Description: Binding affinity for human estrogen receptor alpha

[2] = molecular target: Estrogen receptor beta (Homo sapiens, UniProt Q92731)
Description: Binding affinity for human estrogen receptor beta

[3] = system: MCF7; assay: Inhibition of MCF-7 cancer cell proliferation; assay type: functional, cell-based; details: Homo sapiens
[4] = system: MCF7; assay: Inhibition of MCF-7 cancer cell proliferation; Average of 7 measurements; assay type: functional, cell-based; details: Homo sapiens
[5] = system: MCF7; assay: Inhibition of MCF-7 cancer cell proliferation; Average of 5 measurements; assay type: functional, cell-based; details: Homo sapiens
[6] = system: MCF7; assay: Inhibition of MCF-7 cancer cell proliferation; Average of 2 measurements; assay type: functional, cell-based; details: Homo sapiens

Estrogen receptor beta, sequence (Q92731 whole entry): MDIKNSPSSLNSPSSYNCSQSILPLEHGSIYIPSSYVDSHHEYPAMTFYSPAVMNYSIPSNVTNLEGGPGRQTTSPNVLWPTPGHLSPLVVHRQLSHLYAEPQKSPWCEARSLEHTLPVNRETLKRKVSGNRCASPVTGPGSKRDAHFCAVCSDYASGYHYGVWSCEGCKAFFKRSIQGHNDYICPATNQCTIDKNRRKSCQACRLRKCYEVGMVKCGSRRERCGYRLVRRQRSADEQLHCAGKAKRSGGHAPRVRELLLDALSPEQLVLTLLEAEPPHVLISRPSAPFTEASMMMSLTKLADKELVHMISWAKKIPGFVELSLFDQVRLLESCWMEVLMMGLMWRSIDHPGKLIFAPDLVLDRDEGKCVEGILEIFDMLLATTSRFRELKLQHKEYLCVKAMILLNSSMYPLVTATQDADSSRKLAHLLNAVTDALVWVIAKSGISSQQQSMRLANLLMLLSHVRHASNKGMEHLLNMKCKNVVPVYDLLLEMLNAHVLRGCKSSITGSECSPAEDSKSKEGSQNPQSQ

IC50 [1]	IC50 [2]	IC50 [3]	IC50 [4]	IC50 [5]	IC50 [6]	SMILES
5 nM	111 nM	67 nM	–	–	–	Oc1ccc([C@H]2Sc3cc(O)ccc3S[C@H]2c2ccc(OCCN3CCCCC3)c(Br)c2)cc1
18 nM	266 nM	123 nM	–	–	–	Oc1ccc([C@H]2Sc3cc(O)ccc3S[C@H]2c2ccc(OCCN3CCCC3)cc2)cc1
–	–	–	3 nM	–	–	Oc1ccc([C@H]2Sc3cc(O)ccc3O[C@H]2c2ccc(OCCN3CCCCC3)cc2)cc1
1 nM	38 nM	–	–	0.6 nM	–	Oc1cccc([C@H]2Sc3cc(O)ccc3O[C@H]2c2ccc(OCCN3CCCC3)cc2)c1
21 nM	326 nM	112 nM	–	–	–	Oc1ccc([C@H]2Sc3cc(O)ccc3S[C@H]2c2ccc(OCCN3CCCCC3)cc2)cc1
15 nM	583 nM	564 nM	–	–	–	Oc1cccc([C@H]2Sc3cc(O)ccc3S[C@H]2c2ccc(OCCN3CCCCC3)cc2)c1
4 nM	–	–	–	–	0.4 nM	Oc1cccc([C@H]2Sc3cc(O)ccc3O[C@H]2c2ccc(OCCN3CCCCC3)cc2)c1

SMILES	IC50 [1]	IC50 [2]	IC50 [3]	IC50 [4]	IC50 [5]	IC50 [6]
Oc1ccc([C@H]2Sc3cc(O)ccc3S[C@H]2c2ccc(OCCN3CCCC3)c(Br)c2)cc1	4 nM	87 nM	114 nM	–	–	–
Oc1cccc([C@H]2Sc3cc(O)ccc3S[C@H]2c2ccc(OCCN3CCCCC3)c(Br)c2)c1	4 nM	161 nM	152 nM	–	–	–

From ChEMBL document CHEMBL1146804, “Estrogen receptor ligands. Part 6: Synthesis and binding affinity of dihydrobenzodithiins” (Bioorg Med Chem Lett, 2004)
